Assay results: US6228373A, “Peptides with immunomodulatory effects” (priority 1995, dated 2001)
Positions of bridges follow the written chain, without caps; N, C: chain ends. Residues, ends and D or L forms follow the SMILES beside them. Chains are numbered I, II in the order given.

Columns and labels:
[1] = system: rat spontaneously developed mammary carcinoma cells; assay: Effects of peptides on tumour growth; assay type: in vivo; conditions: Wistar rats, subcutaneous mammary carcinoma, gavage once a day, all dose levels tested
Method: 10^4 rat spontaneously developed mammary carcinoma cells in isotonic saline and 5% normal syngeneic rat serum were inoculated subcutaneously in the right hindlegs of Wistar rats (8 per group). Tumour size was estimated by palpation and caliper measurements of a first diameter (a), being the largest diameter, and the one (b) perpendicular to the first. The volume of the tumour was calculated using the formula: V=0.4 ab^2.
Tumour volume is given in mm^3 as a median for each group of rats (8 per group).
Drug and control (isotonic saline) were administered by gavage (oesophagealtube) once a day (a.m.) on each of days 4-8 and 11-15 for peptides
i) Gly-Pro-Cys-Cys-Pro-Gly (SEQ ID NO:20; 3 μmol/kg/day); ii) Ala-Pro-Cys-Cys-Val-Pro (SEQ ID NO:21; 0.03 and […]);

[2] = system: mice (DTH test as per Example 43); assay: DTH test, comparison of different routes of administration; assay type: in vivo
Method: The mice were sensitized, Day 0, by epicutaneous application of 150 μl of an absolute ethanol-acetone (3:1) solution containing 3% OXA on the shaved abdomen. Treatment with peptides 1 to 41 inclusive, or vehicle (phosphate buffer, pH 7.4, containing a mixture of Buffer A and Buffer B in the proportion 63%:37% B (Buffer A: Na2 HPO4, 0.89 g/100 ml, EDTA 0.05 g/100 ml; Buffer B: NaH2 PO4, 0.69 g/100 ml, EDTA 0.05 g/100 ml) was initiated by oral feeding immediately after sensitization and continued once daily (a.m) until Day 6. Seven days after sensitization, both ears of all mice were challenged on both sides by topical application of 20 μl 1% OXA dissolved in peanut oil. Ear thickness was measured prior to and at 24 hours or 48 hours after challenge using an Oditest spring calliper. Challenges and measurements were performed under light pentobarbital anaesthesia.
The intensity of the DTH reactions was measured according to the method described by van Loveren H., et al. (1984) J. Immunol. Methods 67: 311 and expressed according to the formula: Tt24/48 -Tt0 μm units, where t0, t24 and t48 represent the ear thickness at time 0, +24 hrs or +48 hrs after challenge respectively, in individual tests (T). The results are expressed as the mean +/- S.E.M.. The level of significance between means of the groups is obtained by Student's two-tailed t-test. […]
Peptide (Peptide No. 4-derived from SEQ ID NO:24) was administered to mice (groups of 10) orally and by parenteral injection (intravenous and subcutaneous injection) at doses of from 0.0003 μmol/kg body weight through to 3.0 μmol/kg body weight as per example 43. […] The mean and standard error of the mean for each group of mice (10 per group) was recorded.
Peptide (SEQ ID NO:24, dimerized as shown in Box 36 of Table 1) was administered to mice (groups of 10) at doses of 0.03 μmol/kg body weight and 3.0 μmol/kg body weight. […] The mean and standard error of the mean for each group of mice (10 per group) was calculated.

[3] = 0.03 and 3.0 μmol/kg body weight

## NCC(=O)N1CCC[C@H]1C(=O)N[C@@H](CS)C(=O)N[C@@H](CS)C(=O)N1CCC[C@H]1C(=O)NCC(=O)O [Peptide 1, Gly-Pro-Cys-Cys-Pro-Gly] (H-GPCCPG-OH)
[1]
  tumour volume compared with the control: marked decrease in tumour volume

## O=C(CNC(=O)[C@@H]1CCCN1)N[C@H]1CSSC[C@@H](C(=O)NCC(=O)N2CCC[C@H]2C(=O)O)NC1=O [Peptide 4] (H-PGCCGP-OH; disulfide 3-4)
[2]; 0.0003 to 3.0 μmol/kg body weight, oral vs intravenous and subcutaneous injection
  immunomodulatory response, oral administration versus other parenteral means: more marked immunomodulatory response

## O=C(CNC(=O)[C@@H]1CCCN1)N[C@H]1CSSC[C@H](NC(=O)CNC(=O)[C@@H]2CCCN2)C(=O)N[C@H](C(=O)NCC(=O)N2CCC[C@H]2C(=O)O)CSSC[C@@H](C(=O)NCC(=O)N2CCC[C@H]2C(=O)O)NC1=O [Peptide 36] (I: H-PGCCGP-OH / II: H-PGCCGP-OH; disulfide I:3-II:3, I:4-II:4)
[2]; [3]
  immunomodulatory effect in the DTH test relative to the control: significant immunomodulatory effect
  reaction by oral route relative to parenteral routes at the same dosage: stronger reaction

## CC[C@H](C)[C@H](NC(=O)[C@@H](N)C(C)C)C(=O)N[C@H]1CSSC[C@@H](C(=O)N[C@@H](CC(C)C)C(=O)N[C@H](C(=O)O)[C@@H](C)O)NC1=O [SEQ ID NO:26] (H-VICCLT-OH; disulfide 3-4)
[1]
  tumour volume compared with the control: marked decrease in tumour volume
